Measurements reported in PubChem BioAssay (NCI).
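Briefly, cells in 96-well plates were exposed to five compound concentrations for 48 h, and endpoints were estimated by linear interpolation. TGI is the concentration that stops growth completely.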

Assays:
Assay in all cases: inhibition of tumour cell growth, NCI panel, 48 h
[1] = system: SK-MEL-2 melanoma
[2] = system: UACC-257 melanoma
[3] = system: EKVX NSCLC
[4] = system: SNB-75 CNS
[5] = system: U251 CNS
[6] = system: OVCAR-8 ovarian
[7] = system: NCI/ADR-RES ovarian
[8] = system: SK-MEL-28 melanoma
[9] = system: SF-268 CNS
[10] = system: HCT-116 colon
[11] = system: MDA-MB-435
[12] = system: HOP-92 NSCLC
[13] = system: A498 renal
[14] = system: TK-10 renal
[15] = system: COLO 205 colon
[16] = system: MCF7 breast
[17] = system: CCRF-CEM leukemia
[18] = system: CAKI-1 renal
[19] = system: SK-OV-3 ovarian
[20] = system: RXF 393 renal
[21] = system: NCI-H23 lung
[22] = system: OVCAR-3 ovarian
[23] = system: 786-0 renal
[24] = system: NCI-H226 lung
[25] = system: OVCAR-5 ovarian
[26] = system: LOX IMVI melanoma
[27] = system: SK-MEL-5 melanoma
[28] = system: MDA-MB-231 breast
[29] = system: HS 578T breast
[30] = system: SF-295 CNS
[31] = system: RPMI-8226 leukemia
[32] = system: SNB-19 CNS
[33] = system: MOLT-4 leukemia
[34] = system: SF-539 CNS
[35] = system: BT-549 breast
[36] = system: K-562 leukemia
[37] = system: SN12C renal
[38] = system: T-47D breast
[39] = system: PC-3 prostate
[40] = system: ACHN renal
[41] = system: UACC-62 melanoma
[42] = system: A549 NSCLC
[43] = system: HOP-62 NSCLC
[44] = system: DU-145 prostate
[45] = system: OVCAR-4 ovarian
[46] = system: MDA-N
[47] = system: HL-60(TB) leukemia
[48] = system: HT29 colon
[49] = system: UO-31 renal
[50] = system: HCT-15 colon
[51] = system: IGROV1 ovarian
[52] = system: MALME-3M melanoma
[53] = system: SR leukemia
[54] = system: M14 melanoma
[55] = system: NCI-H460 lung
[56] = system: HCC-2998 colon
[57] = system: KM12 colon
[58] = system: SW-620 colon
[59] = system: NCI-H522 lung

Structure (SMILES): CN(C)C=Nc1ccc2[nH]c3ccccc3c2c1
- TGI [1]: 35.3 µM
- TGI [2]: 30.3 µM
- TGI [3]: > 100 µM
- TGI [4]: > 100 µM
- TGI [5]: 68.6 µM
- TGI [6]: > 100 µM
- TGI [7]: > 100 µM
- TGI [8]: 40 µM
- TGI [9]: > 100 µM
- TGI [10]: > 100 µM
- TGI [11]: 33.9 µM
- TGI [12]: 39 µM
- TGI [13]: 60.1 µM
- TGI [14]: 86.2 µM
- TGI [15]: 30.2 µM
- TGI [16]: > 100 µM
- TGI [17]: > 100 µM
- TGI [18]: > 100 µM
- TGI [19]: > 100 µM
- TGI [20]: 79 µM
- TGI [21]: > 100 µM
- TGI [22]: > 100 µM
- TGI [23]: 70 µM
- TGI [24]: 84 µM
- TGI [25]: 96.5 µM
- TGI [26]: 34.2 µM
- TGI [27]: 30.4 µM
- TGI [28]: 43.1 µM
- TGI [29]: > 100 µM
- TGI [30]: > 100 µM
- TGI [31]: 60.4 µM
- TGI [32]: > 100 µM
- TGI [33]: 83.3 µM
- TGI [34]: 50.5 µM
- TGI [35]: > 100 µM
- TGI [36]: 43.4 µM
- TGI [37]: > 100 µM
- TGI [38]: 97.7 µM
- TGI [39]: > 100 µM
- TGI [40]: > 100 µM
- TGI [41]: 40.6 µM
- TGI [42]: > 100 µM
- TGI [43]: 57.7 µM
- TGI [44]: > 100 µM
- TGI [45]: > 100 µM
- TGI [46]: 33 µM
- TGI [47]: 41.7 µM
- TGI [48]: 43.8 µM
- TGI [49]: 88.1 µM
- TGI [50]: 46.5 µM
- TGI [51]: > 100 µM
- TGI [52]: 54.7 µM
- TGI [53]: 41 µM
- TGI [54]: 29.1 µM

Structure (SMILES): CCCc1c(Cl)nc(Cl)nc1Cl
- TGI [1]: 4.35 µM
- TGI [2]: 11.1 µM
- TGI [4]: 28.1 µM
- TGI [5]: 7.95 µM
- TGI [6]: > 19.9 µM
- TGI [7]: 7.53 µM
- TGI [8]: 1.45 µM
- TGI [55]: 12.7 µM
- TGI [9]: > 68 µM
- TGI [56]: 15.6 µM
- TGI [10]: 22.8 µM
- TGI [11]: 2.44 µM
- TGI [12]: 11.9 µM
- TGI [13]: 34.7 µM
- TGI [14]: 18.5 µM
- TGI [15]: 0.706 µM
- TGI [16]: 16.3 µM
- TGI [17]: 0.0921 µM
- TGI [19]: > 100 µM
- TGI [57]: 15.8 µM
- TGI [20]: 4.93 µM
- TGI [21]: 4.3 µM
- TGI [22]: 5.46 µM
- TGI [23]: 11.2 µM
- TGI [24]: 0.0913 µM
- TGI [25]: 17.5 µM
- TGI [26]: 0.461 µM
- TGI [27]: 2.54 µM
- TGI [28]: 7.99 µM
- TGI [29]: 27.6 µM
- TGI [30]: 12.3 µM
- TGI [31]: > 33.1 µM
- TGI [58]: 12.7 µM
- TGI [32]: 21.1 µM
- TGI [33]: 10.7 µM
- TGI [34]: 5.84 µM
- TGI [35]: 4.37 µM
- TGI [36]: 1.53 µM
- TGI [37]: 5.51 µM
- TGI [38]: 11.7 µM
- TGI [39]: 28.6 µM
- TGI [40]: 10.7 µM
- TGI [41]: > 100 µM
- TGI [42]: 24.6 µM
- TGI [43]: 7.79 µM
- TGI [44]: 9.82 µM
- TGI [45]: 26.3 µM
- TGI [46]: 0.548 µM
- TGI [47]: 3.01 µM
- TGI [48]: 4.02 µM
- TGI [49]: > 55.4 µM
- TGI [50]: 3.71 µM
- TGI [51]: > 37.3 µM
- TGI [52]: 4.95 µM
- TGI [53]: 2.15 µM
- TGI [54]: > 37.9 µM

Structure (SMILES): COc1ccc(NC(=S)N/N=C/c2cccc(C)n2)cc1
- TGI [1]: > 100 µM
- TGI [3]: > 100 µM
- TGI [4]: 81.8 µM
- TGI [5]: 24.6 µM
- TGI [6]: > 35.4 µM
- TGI [7]: > 26.6 µM
- TGI [8]: > 100 µM
- TGI [55]: > 42.9 µM
- TGI [9]: > 66.9 µM
- TGI [56]: > 100 µM
- TGI [10]: > 100 µM
- TGI [11]: > 100 µM
- TGI [12]: > 85.5 µM
- TGI [13]: 90 µM
- TGI [14]: > 100 µM
- TGI [15]: > 39.6 µM
- TGI [16]: > 100 µM
- TGI [17]: > 54 µM
- TGI [18]: > 79 µM
- TGI [19]: 46.2 µM
- TGI [57]: > 100 µM
- TGI [21]: > 100 µM
- TGI [22]: > 100 µM
- TGI [23]: > 65 µM
- TGI [24]: 53.8 µM
- TGI [25]: > 100 µM
- TGI [26]: 33.2 µM
- TGI [27]: > 36.5 µM
- TGI [28]: > 100 µM
- TGI [59]: 5.73 µM
- TGI [29]: > 100 µM
- TGI [30]: 40.3 µM
- TGI [31]: 62.1 µM
- TGI [58]: > 100 µM
- TGI [32]: > 100 µM
- TGI [33]: > 29.3 µM
- TGI [34]: 34.2 µM
- TGI [35]: > 71 µM
- TGI [36]: > 100 µM
- TGI [37]: > 100 µM
- TGI [38]: > 100 µM
- TGI [39]: > 100 µM
- TGI [40]: 19.5 µM
- TGI [41]: 10.7 µM
- TGI [42]: > 100 µM
- TGI [43]: 38.4 µM
- TGI [44]: > 67.1 µM
- TGI [45]: > 100 µM
- TGI [46]: > 100 µM
- TGI [47]: 6.06 µM
- TGI [48]: 14.9 µM
- TGI [49]: 18 µM
- TGI [50]: > 100 µM
- TGI [51]: 24.1 µM
- TGI [52]: > 100 µM
- TGI [53]: > 37.5 µM
- TGI [54]: 11.2 µM
